What all share (test): biochemical
Holding throughout (design): KINOMEscan active site-directed competition binding assay (DiscoveRx), 456 kinases, per cent of control at 300 nM
Holding throughout (details): read-out: Percent of Control (%)

The target of one assay is AKT3 (Homo sapiens, UniProt Q9Y243). As to the method:
(§1) Kinase selectivity of T-474 and T-418 was evaluated at 300 nmol/L using a panel of 456 kinases at DiscoveRx (KINOMEscan). The platform employs an active site-directed competition binding assay to quantitatively measure interactions between test compounds and kinases. […] In VCaP prostate cancer cells, treatment with T-474 or T-418 suppressed the phosphorylation of the known CDK8 substrate STAT1 at Ser727 both in the absence and in the presence of IFN-γ (Figure 1B), which stimulates CDK8-mediated STAT1 phosphorylation.

A further assay concerns the target ALK (Homo sapiens, UniProt Q9UM73). As to the method: as §1
A further assay addresses CDK8 (Homo sapiens, UniProt P49336). On the procedure: as §1
The target of a further assay is CSNK1E (Homo sapiens, UniProt P49674). As to the method: as §1
The target in another assay is EPHA2 (Homo sapiens, UniProt P29317). As to the method:
as §1

Another assay has as its target FLT1 (Homo sapiens, UniProt P17948). As to the method:
as §1

For a further assay, the target named is IRAK3 (Homo sapiens, UniProt Q9Y616). On the procedure: as §1
The target of a further assay is KIT(V559D) (Homo sapiens, UniProt P10721, V559D). As to the method:
as §1

The next assay deals with T1, MEK6 (Homo sapiens, UniProt P52564).
T1 construct: gene MAP2K6
As to the method: as §1

The next assay concerns the target MET(M1250T) (Homo sapiens, UniProt P08581, M1250T). On the procedure: as §1
For a further assay, the target named is T2, MLK2 (Homo sapiens, UniProt Q02779).
T2 construct: gene MAP3K10
On the procedure:
as §1

The target in another assay is T3, MRCKA (Homo sapiens, UniProt Q5VT25).
T3 construct: gene CDC42BPA
As to the method: as §1

The target in a further assay is T4, MST2 (Homo sapiens, UniProt Q13188).
T4 construct: gene STK3
On the procedure:
as §1

Another assay has as its target T5, NIM1 (Homo sapiens, UniProt Q8IY84).
T5 construct: gene NIM1K
As to the method:
as §1

Another assay deals with PIK3CB (Homo sapiens, UniProt P42338). On the procedure: as §1
The target in assay [1] is T6, RSK1(Kin.Dom.2-C-terminal) (Homo sapiens, UniProt Q15418).
T6 construct: gene RPS6KA1; Kin.Dom.2-C-terminal
On the procedure:
as §1

For assay [2], the target named is T7, RSK2(Kin.Dom.2-C-terminal) (Homo sapiens, UniProt P51812).
T7 construct: gene RPS6KA3; Kin.Dom.2-C-terminal
As to the method: as §1

Another assay has as its target TEC (Homo sapiens, UniProt P42680). As to the method: as §1
For a further assay, the target named is TSSK1B (Homo sapiens, UniProt Q9BXA7). As to the method:
as §1

Another assay concerns the target WNK1 (Homo sapiens, UniProt Q9H4A3). As to the method: as §1
The target in another assay is T8, ZAK (Homo sapiens, UniProt Q9NYL2).
T8 construct: gene MAP3K20
On the procedure:
as §1

The structures appear in SMILES notation. Read-outs that look alike come from different tables or passages of the source.

T8 sequence (Q9NYL2 whole entry): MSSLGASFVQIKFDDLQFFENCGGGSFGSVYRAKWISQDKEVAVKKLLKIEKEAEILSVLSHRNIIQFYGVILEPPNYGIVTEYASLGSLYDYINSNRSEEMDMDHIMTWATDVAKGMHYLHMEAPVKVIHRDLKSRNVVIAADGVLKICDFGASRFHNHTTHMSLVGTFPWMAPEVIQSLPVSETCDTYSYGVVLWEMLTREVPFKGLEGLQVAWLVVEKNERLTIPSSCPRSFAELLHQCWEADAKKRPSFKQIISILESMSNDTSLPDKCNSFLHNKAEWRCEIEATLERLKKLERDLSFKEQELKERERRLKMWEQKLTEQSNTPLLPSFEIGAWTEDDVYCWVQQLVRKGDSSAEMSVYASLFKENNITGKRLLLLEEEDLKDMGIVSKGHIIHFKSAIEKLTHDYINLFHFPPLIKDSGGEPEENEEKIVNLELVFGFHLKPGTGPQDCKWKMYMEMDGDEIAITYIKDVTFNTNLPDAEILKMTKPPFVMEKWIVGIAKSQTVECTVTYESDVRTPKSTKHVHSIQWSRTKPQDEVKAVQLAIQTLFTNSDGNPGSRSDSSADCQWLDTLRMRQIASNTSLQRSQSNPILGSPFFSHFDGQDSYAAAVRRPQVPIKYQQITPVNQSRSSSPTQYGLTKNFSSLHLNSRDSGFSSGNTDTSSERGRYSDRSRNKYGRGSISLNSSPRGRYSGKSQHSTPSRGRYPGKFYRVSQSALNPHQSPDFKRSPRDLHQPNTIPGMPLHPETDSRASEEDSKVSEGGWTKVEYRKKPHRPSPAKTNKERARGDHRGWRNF
Chain of TEC (P42680 whole entry): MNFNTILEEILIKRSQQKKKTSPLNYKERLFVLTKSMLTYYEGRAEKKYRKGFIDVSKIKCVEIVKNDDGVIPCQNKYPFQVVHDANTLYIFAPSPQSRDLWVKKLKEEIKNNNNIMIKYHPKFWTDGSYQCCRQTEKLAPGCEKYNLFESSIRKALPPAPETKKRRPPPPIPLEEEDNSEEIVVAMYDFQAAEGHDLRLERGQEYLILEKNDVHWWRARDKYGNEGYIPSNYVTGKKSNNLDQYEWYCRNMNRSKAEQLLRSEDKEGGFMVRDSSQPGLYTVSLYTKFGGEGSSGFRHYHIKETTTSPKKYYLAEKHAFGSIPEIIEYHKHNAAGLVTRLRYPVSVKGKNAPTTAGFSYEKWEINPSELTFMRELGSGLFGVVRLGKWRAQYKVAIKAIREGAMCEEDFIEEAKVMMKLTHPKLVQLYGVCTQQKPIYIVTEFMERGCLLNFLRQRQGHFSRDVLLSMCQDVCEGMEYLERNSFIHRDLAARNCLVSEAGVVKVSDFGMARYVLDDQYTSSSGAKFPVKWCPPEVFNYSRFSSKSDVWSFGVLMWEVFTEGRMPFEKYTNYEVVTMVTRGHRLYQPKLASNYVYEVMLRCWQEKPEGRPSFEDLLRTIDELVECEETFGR
T1 sequence (P52564 whole entry): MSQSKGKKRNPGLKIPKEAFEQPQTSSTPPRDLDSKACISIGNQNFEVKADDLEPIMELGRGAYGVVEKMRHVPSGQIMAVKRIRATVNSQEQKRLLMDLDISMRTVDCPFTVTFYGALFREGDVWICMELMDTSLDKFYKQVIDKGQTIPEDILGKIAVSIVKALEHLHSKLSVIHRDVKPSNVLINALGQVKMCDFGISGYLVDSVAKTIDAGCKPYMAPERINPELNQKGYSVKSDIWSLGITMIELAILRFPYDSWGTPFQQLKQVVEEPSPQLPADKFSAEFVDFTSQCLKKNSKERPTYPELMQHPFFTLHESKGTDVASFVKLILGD
Chain of AKT3 (Q9Y243 whole entry): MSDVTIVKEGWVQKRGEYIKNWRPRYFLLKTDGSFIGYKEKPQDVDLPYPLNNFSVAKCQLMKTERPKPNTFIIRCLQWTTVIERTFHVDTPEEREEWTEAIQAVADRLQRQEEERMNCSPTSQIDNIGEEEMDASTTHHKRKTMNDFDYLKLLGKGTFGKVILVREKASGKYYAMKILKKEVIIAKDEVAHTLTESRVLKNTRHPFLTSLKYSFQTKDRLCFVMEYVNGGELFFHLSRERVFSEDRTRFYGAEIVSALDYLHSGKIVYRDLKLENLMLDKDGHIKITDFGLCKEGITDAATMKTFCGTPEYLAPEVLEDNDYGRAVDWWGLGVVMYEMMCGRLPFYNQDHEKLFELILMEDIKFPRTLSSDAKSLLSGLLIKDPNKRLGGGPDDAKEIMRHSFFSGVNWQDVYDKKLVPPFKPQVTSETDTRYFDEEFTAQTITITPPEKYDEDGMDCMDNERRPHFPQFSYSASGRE
Chain of FLT1 (P17948 whole entry): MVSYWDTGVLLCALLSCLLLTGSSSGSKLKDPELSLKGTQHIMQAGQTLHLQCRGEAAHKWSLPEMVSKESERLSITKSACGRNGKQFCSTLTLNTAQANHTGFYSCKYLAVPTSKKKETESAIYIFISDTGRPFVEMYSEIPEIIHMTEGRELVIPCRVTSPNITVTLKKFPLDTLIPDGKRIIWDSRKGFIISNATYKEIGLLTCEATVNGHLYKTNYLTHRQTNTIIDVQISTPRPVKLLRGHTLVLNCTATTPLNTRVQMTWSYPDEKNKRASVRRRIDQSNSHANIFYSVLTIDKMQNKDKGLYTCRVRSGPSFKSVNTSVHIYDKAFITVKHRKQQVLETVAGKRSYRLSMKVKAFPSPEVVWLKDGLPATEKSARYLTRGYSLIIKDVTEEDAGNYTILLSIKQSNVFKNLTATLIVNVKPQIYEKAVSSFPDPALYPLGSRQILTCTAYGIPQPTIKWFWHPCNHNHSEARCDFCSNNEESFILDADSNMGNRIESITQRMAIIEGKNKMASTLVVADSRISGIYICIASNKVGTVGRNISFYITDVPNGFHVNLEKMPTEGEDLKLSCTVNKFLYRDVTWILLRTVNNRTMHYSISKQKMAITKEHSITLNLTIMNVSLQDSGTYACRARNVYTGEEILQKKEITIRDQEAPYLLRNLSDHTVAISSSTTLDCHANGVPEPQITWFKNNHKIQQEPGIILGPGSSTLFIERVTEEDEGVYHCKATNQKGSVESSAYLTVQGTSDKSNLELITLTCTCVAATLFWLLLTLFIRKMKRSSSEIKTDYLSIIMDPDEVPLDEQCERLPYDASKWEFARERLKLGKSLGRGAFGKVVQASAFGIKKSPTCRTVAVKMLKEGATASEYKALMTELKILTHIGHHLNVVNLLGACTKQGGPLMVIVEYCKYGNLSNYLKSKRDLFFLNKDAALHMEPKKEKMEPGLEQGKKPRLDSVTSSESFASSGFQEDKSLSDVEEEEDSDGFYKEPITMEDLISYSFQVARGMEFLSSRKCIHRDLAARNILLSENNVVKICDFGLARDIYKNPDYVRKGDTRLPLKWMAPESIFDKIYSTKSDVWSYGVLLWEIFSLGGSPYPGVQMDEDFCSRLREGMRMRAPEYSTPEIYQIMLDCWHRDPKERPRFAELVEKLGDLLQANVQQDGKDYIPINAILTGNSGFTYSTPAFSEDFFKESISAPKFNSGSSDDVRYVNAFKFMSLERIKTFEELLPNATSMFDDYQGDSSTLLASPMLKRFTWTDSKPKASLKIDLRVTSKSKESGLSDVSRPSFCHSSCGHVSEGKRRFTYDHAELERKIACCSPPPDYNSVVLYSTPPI
Chain of CSNK1E (P49674 whole entry): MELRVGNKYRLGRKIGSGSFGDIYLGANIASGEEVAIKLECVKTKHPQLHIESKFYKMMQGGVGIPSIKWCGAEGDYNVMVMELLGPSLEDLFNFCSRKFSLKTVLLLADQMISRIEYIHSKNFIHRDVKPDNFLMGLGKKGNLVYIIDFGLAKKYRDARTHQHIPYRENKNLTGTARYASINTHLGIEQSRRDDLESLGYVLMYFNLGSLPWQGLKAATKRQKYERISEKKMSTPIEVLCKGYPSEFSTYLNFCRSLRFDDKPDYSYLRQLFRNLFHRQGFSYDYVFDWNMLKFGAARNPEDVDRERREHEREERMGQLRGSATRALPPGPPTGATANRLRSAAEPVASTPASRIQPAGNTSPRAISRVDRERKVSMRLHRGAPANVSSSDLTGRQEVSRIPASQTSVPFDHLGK
Chain of EPHA2 (P29317 whole entry): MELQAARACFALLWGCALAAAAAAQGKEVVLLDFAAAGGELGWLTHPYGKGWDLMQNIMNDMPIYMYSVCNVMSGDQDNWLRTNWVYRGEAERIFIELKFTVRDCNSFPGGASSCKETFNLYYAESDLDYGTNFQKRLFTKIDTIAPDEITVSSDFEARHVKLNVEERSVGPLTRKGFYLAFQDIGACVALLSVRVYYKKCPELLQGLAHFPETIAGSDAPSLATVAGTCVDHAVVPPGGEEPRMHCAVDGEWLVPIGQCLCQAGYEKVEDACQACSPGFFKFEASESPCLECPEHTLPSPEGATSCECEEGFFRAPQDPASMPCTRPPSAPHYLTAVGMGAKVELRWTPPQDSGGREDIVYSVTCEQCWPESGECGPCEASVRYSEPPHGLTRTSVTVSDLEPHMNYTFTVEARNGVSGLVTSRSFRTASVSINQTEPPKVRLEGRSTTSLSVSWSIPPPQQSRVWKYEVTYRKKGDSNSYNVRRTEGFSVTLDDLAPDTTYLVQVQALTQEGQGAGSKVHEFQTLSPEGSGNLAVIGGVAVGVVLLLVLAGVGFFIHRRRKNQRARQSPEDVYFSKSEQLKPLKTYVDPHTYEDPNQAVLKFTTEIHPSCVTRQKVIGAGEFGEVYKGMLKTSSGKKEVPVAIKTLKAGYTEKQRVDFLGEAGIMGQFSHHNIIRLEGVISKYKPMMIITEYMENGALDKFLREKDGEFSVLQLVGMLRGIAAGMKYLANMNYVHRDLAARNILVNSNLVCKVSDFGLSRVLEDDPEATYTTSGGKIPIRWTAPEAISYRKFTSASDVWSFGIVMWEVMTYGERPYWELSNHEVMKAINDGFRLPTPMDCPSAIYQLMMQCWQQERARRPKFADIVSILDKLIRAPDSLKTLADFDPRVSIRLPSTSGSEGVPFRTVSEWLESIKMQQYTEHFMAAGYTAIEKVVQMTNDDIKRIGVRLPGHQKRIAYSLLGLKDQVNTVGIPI

For the compound `O=C(/C=C/c1cnccc1-c1ccc(F)cc1)Nc1ccc(CCc2nnco2)cc1` [T-418, (2E)-3-(4-(4-fluorophenyl)pyridin-3-yl)-N-(4-(2-(1,3,4-oxadiazol-2-yl)ethyl)phenyl)acrylamide], the remaining binding at 0.3 µM on AKT3 (sheet T-418) was determined as 100%; at ALK (sheet T-418), 81%; at CDK8 (sheet T-418), 48%; on CSNK1E (sheet T-418), 89%; on EPHA2 (sheet T-418), 100%; on FLT1 (sheet T-418), 100%. Besides, the remaining binding at 0.3 µM on IRAK3 (sheet T-418) came to 100%; at KIT(V559D) (sheet T-418), 100%; on MEK6 (sheet T-418), 99%; at MET(M1250T) (sheet T-418) it was 97%; on MLK2 (sheet T-418), 71%; on MRCKA (sheet T-418) it was 100%. Further, the remaining binding at 0.3 µM on MST2 (sheet T-418) turned out to be 46%; at NIM1 (sheet T-418) it was 100%; at PIK3CB (sheet T-418) it was 96%; in [1] (sheet T-418) it was 100%; in [2] (sheet T-418), 100%; on TEC (sheet T-418), 98%. In addition, the remaining binding at 0.3 µM on TSSK1B (sheet T-418) came to 100%; at WNK1 (sheet T-418), 100%; at ZAK (sheet T-418), 73%.

Take `Cc1ncccc1Oc1sc(C(N)=O)c2c1-c1c(cnn1C)CC2` [T-474, 1-methyl-8-((2-methylpyridin-3-yl)oxy)-4,5-dihydro-1H-thieno[3,4-g]indazole-6-carboxamide]: the remaining binding at 0.3 µM at AKT3 stood at 97%; on ALK, 98%; at CDK8 it was 9.8%; at CSNK1E, 76%; at EPHA2, 86%; at FLT1 it was 100%. The remaining binding at 0.3 µM on IRAK3 came out at 96%; at KIT(V559D) it was 100%; at MEK6, 92%; on MET(M1250T) it was 100%; on MLK2, 97%; on MRCKA, 100%. Further, the remaining binding at 0.3 µM at MST2 amounted to 50%; on NIM1, 63%; on PIK3CB, 100%; in assay [1] it was 100%; in [2], 100%; on TEC, 100%. The remaining binding at 0.3 µM at TSSK1B was 100%; on WNK1 it was 100%; at ZAK, 74%.

The values are drawn from article PMC5862592, “CDK8/19 inhibition induces premature G1/S transition and ATR-dependent cell death in prostate cancer cells” (Oncotarget, 2018).
